Results reported in ChEMBL document CHEMBL4619820, “Development of Novel AKR1C3 Inhibitors as New Potential Treatment for Castration-Resistant Prostate Cancer” (J Med Chem, 2020).
Calls of active or inactive are those of the source. The calls are words filed in the database; no cut-off is given here.

What was measured:
[1] = molecular target: T1, Aldo-keto reductase family 1 member C3 (Homo sapiens, UniProt P42330); assay: Inhibition of recombinant AKR1C3 (unknown origin) assessed as reduction in S-tetralol-induced dehydrogenase activity by measuring NADPH level
T1 sequence (P42330 whole entry): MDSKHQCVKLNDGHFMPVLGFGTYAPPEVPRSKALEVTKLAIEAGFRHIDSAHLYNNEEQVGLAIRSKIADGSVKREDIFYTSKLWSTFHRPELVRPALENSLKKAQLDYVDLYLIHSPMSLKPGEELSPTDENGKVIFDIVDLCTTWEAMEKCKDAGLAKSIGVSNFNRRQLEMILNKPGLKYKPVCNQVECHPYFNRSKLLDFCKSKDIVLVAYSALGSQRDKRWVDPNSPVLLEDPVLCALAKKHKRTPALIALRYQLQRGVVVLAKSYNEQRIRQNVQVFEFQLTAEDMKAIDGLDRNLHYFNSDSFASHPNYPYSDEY

[2] = molecular target: T2, Androgen receptor (Homo sapiens) (UniProt P10275); assay: Agonistic activity at AR in human 22Rv1 cells assessed as effect on cell number at 1 nM by CCK8 assay; format: cell-based; conditions: CWR22R
T2 sequence (whole entry): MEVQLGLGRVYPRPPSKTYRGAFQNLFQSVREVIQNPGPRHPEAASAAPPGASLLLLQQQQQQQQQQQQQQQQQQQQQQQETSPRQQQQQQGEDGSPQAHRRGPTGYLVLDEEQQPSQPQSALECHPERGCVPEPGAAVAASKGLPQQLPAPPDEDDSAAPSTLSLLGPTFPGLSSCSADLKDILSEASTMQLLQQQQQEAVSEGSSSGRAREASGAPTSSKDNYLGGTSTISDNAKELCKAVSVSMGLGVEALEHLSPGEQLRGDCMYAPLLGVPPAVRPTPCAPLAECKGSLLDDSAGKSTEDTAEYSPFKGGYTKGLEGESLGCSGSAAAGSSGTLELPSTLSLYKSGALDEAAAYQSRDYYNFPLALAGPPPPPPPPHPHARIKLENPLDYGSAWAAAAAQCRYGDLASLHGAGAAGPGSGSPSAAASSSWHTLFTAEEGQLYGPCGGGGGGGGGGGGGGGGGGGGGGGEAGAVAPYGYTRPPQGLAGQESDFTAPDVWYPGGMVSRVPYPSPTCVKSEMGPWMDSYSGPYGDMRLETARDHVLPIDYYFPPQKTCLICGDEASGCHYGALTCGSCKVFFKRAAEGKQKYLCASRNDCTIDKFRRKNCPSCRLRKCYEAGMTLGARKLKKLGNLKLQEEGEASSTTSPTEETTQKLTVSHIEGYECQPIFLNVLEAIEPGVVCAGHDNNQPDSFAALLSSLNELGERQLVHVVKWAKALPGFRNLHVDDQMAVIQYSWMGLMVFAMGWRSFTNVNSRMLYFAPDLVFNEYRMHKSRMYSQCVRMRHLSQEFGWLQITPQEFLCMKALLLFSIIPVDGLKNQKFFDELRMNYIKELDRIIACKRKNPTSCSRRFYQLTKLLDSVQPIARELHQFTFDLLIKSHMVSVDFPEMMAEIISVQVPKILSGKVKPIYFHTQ

Row | SMILES | IC50 [1] | Activity [2]
1 | N=c1oc2c(O)cccc2cc1C(=O)Nc1cc(F)c(F)c(F)c1 | 47 nM | inactive
2 | N=c1oc2c(O)cccc2cc1C(=O)Nc1ccc(F)c(F)c1 | 220 nM | inactive
3 | N=c1oc2c(O)cccc2cc1C(=O)Nc1cccc(O)c1 | 60 nM | inactive
4 | N=c1oc2c(O)cccc2cc1C(=O)Nc1ccccc1O | > 10000 nM | inactive
5 | Cc1cccc(NC(=O)c2cc3cccc(O)c3oc2=N)c1 | 55 nM | 
6 | N=c1oc2c(O)cccc2cc1C(=O)Nc1ccc(C(F)(F)F)cc1 | 24 nM | 
7 | N=c1oc2c(O)cccc2cc1C(=O)Nc1ccccc1 | 36 nM | inactive
8 | CC(C)c1ccccc1NC(=O)c1cc2cccc(O)c2oc1=N | 30 nM | 
9 | COc1cccc2cc(C(=O)Nc3ccc(F)cc3)c(=N)oc12 | > 10000 nM | 
10 | Cc1ccccc1NC(=O)c1cc2cccc(O)c2oc1=N | 52 nM | 
11 | CCc1ccc(NC(=O)c2cc3cccc(O)c3oc2=N)cc1 | 45 nM | inactive
12 | N=c1oc2c(O)cccc2cc1C(=O)Nc1cccc(C(F)(F)F)c1 | 50 nM | 
13 | CCc1ccccc1NC(=O)c1cc2cccc(O)c2oc1=N | 21 nM | inactive
14 | N=c1oc2cccc(O)c2cc1C(=O)Nc1ccc(F)cc1 | 370 nM | 
15 | N=c1oc2c(O)cccc2cc1C(=O)Nc1ccccc1F | 64 nM | inactive
16 | CC(C)c1cccc(NC(=O)c2cc3cccc(O)c3oc2=N)c1 | 47 nM | 
17 | N=c1oc2ccc(O)cc2cc1C(=O)Nc1ccc(F)cc1 | > 10000 nM | 
18 | N=c1oc2c(O)cccc2cc1C(=O)Nc1ccc(Cl)cc1 | 52 nM | inactive
19 | N=c1oc2c(O)cccc2cc1C(=O)Nc1ccc(C(F)(F)F)cc1C(F)(F)F | 58 nM | 
20 | N=c1oc2cc(O)ccc2cc1C(=O)Nc1ccc(F)cc1 | > 10000 nM | 
21 | N=c1oc2c(O)cccc2cc1C(=O)Nc1ccc(O)cc1 | > 10000 nM | inactive
